# Starred links: 1 amine or outer side, 2 acyl side, 3 side chain; linkers in the order of their positions; H or OH if unused. Non-standard residues stand in square brackets, D forms with d. Residues, ends and D or L forms follow the SMILES beside them. *: point of attachment. NH(2-pyrrolidin-1-ylethyl) = C1CCN(CCN*)C1; dPhe(4-Cl) = N[C@H](Cc1ccc(Cl)cc1)C(=O)O; d2Nal = N[C@H](Cc1ccc2ccccc2c1)C(=O)O; NMeY = CN[C@@H](Cc1ccc(O)cc1)C(=O)O; Ethylenediamine = C(CN[*:2])N[*:1]; d3Pal = N[C@H](Cc1cccnc1)C(=O)O; NHPhenethyl = c1ccc(CCN*)cc1; Nicotinoyl = O=C(c1cccnc1)*; NH(CH2)7NH2 = NCCCCCCCN*; NH(CH2)6NH2 = NCCCCCCN*; NH(CH2)5NH2 = NCCCCCN*; NH(CH2)4NH2 = NCCCCN*; X10 = N=C(N)NCCCCCCN*; NH(CH2)3NH2 = NCCCN*; X12 = N=C(N)NCCCCCN*; X11 = CC(C)NCCCCCN*; NHCH2CH2OH = OCCN*; X2 = N=C(N)NCCN*; NEt2 = CCN(CC)*; X4 = CC(C)NCCN*; NHBu = CCCCN*
# Molecular target: T1, LH release from rat pituitary cells (Rattus norvegicus, UniProt P30969)
# T1 sequence (P30969 1-327): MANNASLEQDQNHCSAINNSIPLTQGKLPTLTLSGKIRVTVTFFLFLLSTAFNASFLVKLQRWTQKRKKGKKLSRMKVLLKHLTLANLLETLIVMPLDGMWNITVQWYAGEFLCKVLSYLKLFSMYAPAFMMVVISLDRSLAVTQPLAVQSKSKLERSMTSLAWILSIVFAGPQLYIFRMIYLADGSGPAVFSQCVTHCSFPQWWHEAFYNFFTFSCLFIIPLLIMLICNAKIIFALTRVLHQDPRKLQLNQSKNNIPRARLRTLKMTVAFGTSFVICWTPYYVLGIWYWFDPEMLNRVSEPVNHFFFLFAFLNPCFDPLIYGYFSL
# Test: in vitro inhibition of LH release from rat pituitary cells (pA2)
# Type: cell-based
# Settings: pA2 = negative logarithm of antagonist concentration required to shift the response curve of the agonist leuprolide to two-fold higher concentration
# Description: Representative compounds of the present invention were evaluated in vitro for inhibition of LH release from rat pituitary cells (pA2). Methods for the assay procedures arc described by F. Haviv, et al. J. Med. Chem., 32:2340-2344 (1989). Values of pA2 are the negative logarithms of the concentration of the particular antagonist test compound required to shift the response curve produced by the agonist leuprolide to two-fold higher concentration. Typically values of 7.0 or greater are indicative of good LHRH antagonist potency, with values of 8.0 or greater being preferred. Leuprolide LHRH agonist, disclosed and claimed in U.S. Pat. No. 4,005,063, has the structure 5-oxo-Pro^1 -His^2 -Trp^3 -Ser^4 -Tyr^5 -D-Leu^6 -Leu^7 -Arg^8 -Pro^9 -NHEt.
row,SMILES,LHRH antagonist potency (pA2)
1,"CCCCNC(=O)[C@H](CC(C)C)NC(=O)[C@@H](CCCCNC(=O)c1cccnc1)NC(=O)[C@H](Cc1ccc(O)cc1)N(C)C(=O)[C@H](CO)NC(=O)[C@@H](Cc1cccnc1)NC(=O)[C@@H](Cc1ccc(Cl)cc1)NC(=O)[C@@H](Cc1ccc2ccccc2c1)NC(C)=O [Example 1, NAcD2Nal-D4ClPhe-D3Pal-Ser-NMeTyr-DLys(Nic)-Leu-NH-nBu] (Ac-[d2Nal][dPhe(4-Cl)][d3Pal]S[NMeY][dK](Nicotinoyl)L-NHBu)",7.90
2,"CC(=O)N[C@H](Cc1ccc2ccccc2c1)C(=O)N[C@H](Cc1ccc(Cl)cc1)C(=O)N[C@H](Cc1cccnc1)C(=O)N[C@@H](CO)C(=O)N(C)[C@@H](Cc1ccc(O)cc1)C(=O)N[C@H](CCCCNC(=O)c1cccnc1)C(=O)N[C@@H](CC(C)C)C(=O)NCCN [Example 2, NAcD2Nal-D4ClPhe-D3Pal-Ser-NMeTyr-DLys(Nic)-Leu-NH--(CH2)2 NH2] (Ac-[d2Nal][dPhe(4-Cl)][d3Pal]S[NMeY][dK](Nicotinoyl)L-Ethylenediamine)",9.58
3,"CC(=O)N[C@H](Cc1ccc2ccccc2c1)C(=O)N[C@H](Cc1ccc(Cl)cc1)C(=O)N[C@H](Cc1cccnc1)C(=O)N[C@@H](CO)C(=O)N(C)[C@@H](Cc1ccc(O)cc1)C(=O)N[C@H](CCCCNC(=O)c1cccnc1)C(=O)N[C@@H](CC(C)C)C(=O)NCCN1CCCC1 [Example 3, NAcD2Nal-D4ClPhe-D3Pal-Ser-NMeTyr-DLys(Nic)-Leu-NH--(CH2)2 -(1-pyrrolidine)] (Ac-[d2Nal][dPhe(4-Cl)][d3Pal]S[NMeY][dK](Nicotinoyl)L-{NH(2-pyrrolidin-1-ylethyl)})",11.27
4,"CCN(CC)C(=O)[C@H](CC(C)C)NC(=O)[C@@H](CCCCNC(=O)c1cccnc1)NC(=O)[C@H](Cc1ccc(O)cc1)N(C)C(=O)[C@H](CO)NC(=O)[C@@H](Cc1cccnc1)NC(=O)[C@@H](Cc1ccc(Cl)cc1)NC(=O)[C@@H](Cc1ccc2ccccc2c1)NC(C)=O [Example 4, NAcD2Nal-D4ClPhe-D3Pal-Ser-NMeTyr-DLys(Nic)-Leu-N(CH2 CH3)2] (Ac-[d2Nal][dPhe(4-Cl)][d3Pal]S[NMeY][dK](Nicotinoyl)L-NEt2)",7.96
5,"CC(=O)N[C@H](Cc1ccc2ccccc2c1)C(=O)N[C@H](Cc1ccc(Cl)cc1)C(=O)N[C@H](Cc1cccnc1)C(=O)N[C@@H](CO)C(=O)N(C)[C@@H](Cc1ccc(O)cc1)C(=O)N[C@H](CCCCNC(=O)c1cccnc1)C(=O)N[C@@H](CC(C)C)C(=O)NCCCCCCN [Example 5, NAcD2Nal-D4ClPhe-D3Pal-Ser-NMeTyr-DLys(Nic)-Leu-NH--(CH2)6 NH2] (Ac-[d2Nal][dPhe(4-Cl)][d3Pal]S[NMeY][dK](Nicotinoyl)L-{NH(CH2)6NH2})",9.91
6,"CC(=O)N[C@H](Cc1ccc2ccccc2c1)C(=O)N[C@H](Cc1ccc(Cl)cc1)C(=O)N[C@H](Cc1cccnc1)C(=O)N[C@@H](CO)C(=O)N(C)[C@@H](Cc1ccc(O)cc1)C(=O)N[C@H](CCCCNC(=O)c1cccnc1)C(=O)N[C@@H](CC(C)C)C(=O)NCCCCN [Example 6, NAcD2Nal-D4ClPhe-D3Pal-Ser-NMeTyr-DLys(Nic)-Leu-NH--(CH2)4 NH2] (Ac-[d2Nal][dPhe(4-Cl)][d3Pal]S[NMeY][dK](Nicotinoyl)L-{NH(CH2)4NH2})",9.90
7,"CC(=O)N[C@H](Cc1ccc2ccccc2c1)C(=O)N[C@H](Cc1ccc(Cl)cc1)C(=O)N[C@H](Cc1cccnc1)C(=O)N[C@@H](CO)C(=O)N(C)[C@@H](Cc1ccc(O)cc1)C(=O)N[C@H](CCCCNC(=O)c1cccnc1)C(=O)N[C@@H](CC(C)C)C(=O)NCCO [Example 7, NAcD2Nal-D4ClPhe-D3Pal-Ser-NMeTyr-DLys(Nic)-Leu-NH--(CH2)2 OH] (Ac-[d2Nal][dPhe(4-Cl)][d3Pal]S[NMeY][dK](Nicotinoyl)L-NHCH2CH2OH)",8.95
8,"CC(=O)N[C@H](Cc1ccc2ccccc2c1)C(=O)N[C@H](Cc1ccc(Cl)cc1)C(=O)N[C@H](Cc1cccnc1)C(=O)N[C@@H](CO)C(=O)N(C)[C@@H](Cc1ccc(O)cc1)C(=O)N[C@H](CCCCNC(=O)c1cccnc1)C(=O)N[C@@H](CC(C)C)C(=O)NCCc1ccccc1 [Example 8, NAcD2Nal-D4ClPhe-D3Pal-Ser-NMeTyr-DLys(Nic)-Leu-NH--(CH2)2 -phenyl] (Ac-[d2Nal][dPhe(4-Cl)][d3Pal]S[NMeY][dK](Nicotinoyl)L-NHPhenethyl)",8.48
9,"CC(=O)N[C@H](Cc1ccc2ccccc2c1)C(=O)N[C@H](Cc1ccc(Cl)cc1)C(=O)N[C@H](Cc1cccnc1)C(=O)N[C@@H](CO)C(=O)N(C)[C@@H](Cc1ccc(O)cc1)C(=O)N[C@H](CCCCNC(=O)c1cccnc1)C(=O)N[C@@H](CC(C)C)C(=O)NCCNC(C)C [Example 9, NAcD2Nal-D4ClPhe-D3Pal-Ser-NMeTyr-DLys(Nic)-Leu-NH--(CH2)2 NH-isopropyl] (Ac-[d2Nal][dPhe(4-Cl)][d3Pal]S[NMeY][dK](Nicotinoyl)L-X4)",10.21
10,"CC(=O)N[C@H](Cc1ccc2ccccc2c1)C(=O)N[C@H](Cc1ccc(Cl)cc1)C(=O)N[C@H](Cc1cccnc1)C(=O)N[C@@H](CO)C(=O)N(C)[C@@H](Cc1ccc(O)cc1)C(=O)N[C@H](CCCCNC(=O)c1cccnc1)C(=O)N[C@@H](CC(C)C)C(=O)NCCCCCCCN [Example 10, NAcD2Nal-D4ClPhe-D3Pal-Ser-NMeTyr-DLys(Nic)-Leu-NH--(CH2)7 NH2] (Ac-[d2Nal][dPhe(4-Cl)][d3Pal]S[NMeY][dK](Nicotinoyl)L-{NH(CH2)7NH2})",8.76
11,"CC(=O)N[C@H](Cc1ccc2ccccc2c1)C(=O)N[C@H](Cc1ccc(Cl)cc1)C(=O)N[C@H](Cc1cccnc1)C(=O)N[C@@H](CO)C(=O)N(C)[C@@H](Cc1ccc(O)cc1)C(=O)N[C@H](CCCCNC(=O)c1cccnc1)C(=O)N[C@@H](CC(C)C)C(=O)NCCCCCCNC(=N)N [Example 11, NAcD2Nal-D4ClPhe-D3Pal-Ser-NMeTyr-DLys(Nic)-Leu-NH--(CH2)6 NH(C=NH)NH2] (Ac-[d2Nal][dPhe(4-Cl)][d3Pal]S[NMeY][dK](Nicotinoyl)L-X10)",9.10
12,"CC(=O)N[C@H](Cc1ccc2ccccc2c1)C(=O)N[C@H](Cc1ccc(Cl)cc1)C(=O)N[C@H](Cc1cccnc1)C(=O)N[C@@H](CO)C(=O)N(C)[C@@H](Cc1ccc(O)cc1)C(=O)N[C@H](CCCCNC(=O)c1cccnc1)C(=O)N[C@@H](CC(C)C)C(=O)NCCCCCNC(C)C [Example 12, NAcD2Nal-D4ClPhe-D3Pal-Ser-NMeTyr-DLys(Nic)-1-Leu-NH--(CH2)5 NH-isopropyl] (Ac-[d2Nal][dPhe(4-Cl)][d3Pal]S[NMeY][dK](Nicotinoyl)L-X11)",10.45
13,"CC(=O)N[C@H](Cc1ccc2ccccc2c1)C(=O)N[C@H](Cc1ccc(Cl)cc1)C(=O)N[C@H](Cc1cccnc1)C(=O)N[C@@H](CO)C(=O)N(C)[C@@H](Cc1ccc(O)cc1)C(=O)N[C@H](CCCCNC(=O)c1cccnc1)C(=O)N[C@@H](CC(C)C)C(=O)NCCCCCN [Example 13, NAcD2Nal-D4ClPhe-D3Pal-Ser-NMeTyr-DLys(Nic)-Leu-NH--(CH2)5 NH2] (Ac-[d2Nal][dPhe(4-Cl)][d3Pal]S[NMeY][dK](Nicotinoyl)L-{NH(CH2)5NH2})",9.30
14,"CC(=O)N[C@H](Cc1ccc2ccccc2c1)C(=O)N[C@H](Cc1ccc(Cl)cc1)C(=O)N[C@H](Cc1cccnc1)C(=O)N[C@@H](CO)C(=O)N(C)[C@@H](Cc1ccc(O)cc1)C(=O)N[C@H](CCCCNC(=O)c1cccnc1)C(=O)N[C@@H](CC(C)C)C(=O)NCCCCCNC(=N)N [Example 14, NAcD2Nal-D4ClPhe-D3Pal-Ser-NMeTyr-DLys(Nic)-Leu-NH--(CH2)5 NH(C=NH)NH2] (Ac-[d2Nal][dPhe(4-Cl)][d3Pal]S[NMeY][dK](Nicotinoyl)L-X12)",9.81
15,"CC(=O)N[C@H](Cc1ccc2ccccc2c1)C(=O)N[C@H](Cc1ccc(Cl)cc1)C(=O)N[C@H](Cc1cccnc1)C(=O)N[C@@H](CO)C(=O)N(C)[C@@H](Cc1ccc(O)cc1)C(=O)N[C@H](CCCCNC(=O)c1cccnc1)C(=O)N[C@@H](CC(C)C)C(=O)NCCCN [Example 15, NAcD2Nal-D4ClPhe-D3Pal-Ser-NMeTyr-DLys(Nic)-Leu-NH--(CH2)3 NH2] (Ac-[d2Nal][dPhe(4-Cl)][d3Pal]S[NMeY][dK](Nicotinoyl)L-{NH(CH2)3NH2})",8.70
16,"CC(=O)N[C@H](Cc1ccc2ccccc2c1)C(=O)N[C@H](Cc1ccc(Cl)cc1)C(=O)N[C@H](Cc1cccnc1)C(=O)N[C@@H](CO)C(=O)N(C)[C@@H](Cc1ccc(O)cc1)C(=O)N[C@H](CCCCNC(=O)c1cccnc1)C(=O)N[C@@H](CC(C)C)C(=O)NCCNC(=N)N [Example 16, NAcD2Nal-D4ClPhe-D3Pal-Ser-NMeTyr-DLys(Nic)-Leu-NH--(CH2)2 NH(C=NH)NH2] (Ac-[d2Nal][dPhe(4-Cl)][d3Pal]S[NMeY][dK](Nicotinoyl)L-X2)",8.89
